Experimental data: ChEMBL document CHEMBL1201862, “PubChem BioAssay data set” (2004)
Each block holds one compound with its values, some of them ahead of it. Active and inactive are the calls of the source.

Assays:
[1] = RKO cell viability reduction, dose response, CellTiter-Glo luminescence (AID 1117322); type: functional
[2] = cytotoxicity toward HT-29 cells – cell-based, CellTiter-Glo luminescence, IC50, dose response (AID 1117330); type: functional
[3] = HCT116 cell viability decrease, GSK3B pretreatment – CellTiter-Glo, IC50, dose response (AID 1117339); type: functional; details: HCT-116
[4] = cytotoxicity toward Colo320 cells – cell-based, CellTiter-Glo luminescence, IC50, dose response (AID 1117334); type: functional; details: COLO 320
[5] = CellTiter-Glo luminescent dose response of DLD-1 viability loss (AID 1117352); type: functional
[6] = Concentration-dependent survival of SW480 colon cancer line, luminescence detection with CellTiter-Glo, half-maximal inhibitory concentration (AID 1117338); type: functional
[7] = cytotoxicity toward HCT116 cells – cell-based, CellTiter-Glo luminescence, IC50, dose response (AID 1117332); type: functional; details: HCT-116
Prothrombin = Prothrombin (Homo sapiens, UniProt P00734); assay: Thrombin 1536 HTS Dose Response Confirmation. [Related pubchem assays: 1046 (Thrombin 1536 HTS; hits were confirmed in this assay)]; type: functional
Cytochrome P450 3A4 = Cytochrome P450 3A4 (Homo sapiens, UniProt P08684);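 further: CYP3A4 tested as one member of a cytochrome P450 panel screen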
Chain of Cytochrome P450 3A4 (P08684 whole entry): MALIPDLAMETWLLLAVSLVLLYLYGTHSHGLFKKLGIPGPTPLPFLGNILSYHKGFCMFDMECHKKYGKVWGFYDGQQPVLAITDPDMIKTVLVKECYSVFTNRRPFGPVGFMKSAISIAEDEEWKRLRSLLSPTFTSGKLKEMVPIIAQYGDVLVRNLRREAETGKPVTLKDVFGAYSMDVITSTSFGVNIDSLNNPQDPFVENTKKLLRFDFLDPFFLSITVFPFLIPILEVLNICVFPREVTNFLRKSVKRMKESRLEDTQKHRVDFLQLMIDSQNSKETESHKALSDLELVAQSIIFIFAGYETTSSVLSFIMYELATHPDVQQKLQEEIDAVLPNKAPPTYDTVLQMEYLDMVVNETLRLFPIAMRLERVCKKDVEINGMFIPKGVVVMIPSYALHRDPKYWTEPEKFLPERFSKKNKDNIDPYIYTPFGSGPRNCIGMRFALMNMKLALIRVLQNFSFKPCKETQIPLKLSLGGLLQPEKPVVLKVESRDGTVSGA

[8] = molecular target: Peroxisome proliferator-activated receptor gamma/Nuclear receptor coactivator 1 (Homo sapiens, UniProt P37231); type: functional;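 further: agonist potency as compounds enhance coactivator SRC-1 recruitment to PPARgamma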
Chain of Peroxisome proliferator-activated receptor gamma/Nuclear receptor coactivator 1 (P37231 whole entry): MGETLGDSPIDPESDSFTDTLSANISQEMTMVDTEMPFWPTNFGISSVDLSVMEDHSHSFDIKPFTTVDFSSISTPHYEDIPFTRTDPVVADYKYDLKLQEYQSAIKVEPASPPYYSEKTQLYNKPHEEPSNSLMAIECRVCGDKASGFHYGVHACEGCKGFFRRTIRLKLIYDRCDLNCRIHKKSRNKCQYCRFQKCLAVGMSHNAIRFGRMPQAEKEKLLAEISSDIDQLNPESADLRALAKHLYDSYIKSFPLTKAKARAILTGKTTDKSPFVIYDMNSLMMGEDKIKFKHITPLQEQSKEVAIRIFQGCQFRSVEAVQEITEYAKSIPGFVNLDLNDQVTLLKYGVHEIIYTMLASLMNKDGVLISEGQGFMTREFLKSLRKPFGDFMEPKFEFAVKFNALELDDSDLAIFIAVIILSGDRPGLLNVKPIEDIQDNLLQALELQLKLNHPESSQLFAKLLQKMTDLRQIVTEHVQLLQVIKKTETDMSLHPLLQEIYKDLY
Chain of Peroxisome proliferator-activated receptor gamma/Nuclear receptor coactivator 1 (Q15788 whole entry, further chain): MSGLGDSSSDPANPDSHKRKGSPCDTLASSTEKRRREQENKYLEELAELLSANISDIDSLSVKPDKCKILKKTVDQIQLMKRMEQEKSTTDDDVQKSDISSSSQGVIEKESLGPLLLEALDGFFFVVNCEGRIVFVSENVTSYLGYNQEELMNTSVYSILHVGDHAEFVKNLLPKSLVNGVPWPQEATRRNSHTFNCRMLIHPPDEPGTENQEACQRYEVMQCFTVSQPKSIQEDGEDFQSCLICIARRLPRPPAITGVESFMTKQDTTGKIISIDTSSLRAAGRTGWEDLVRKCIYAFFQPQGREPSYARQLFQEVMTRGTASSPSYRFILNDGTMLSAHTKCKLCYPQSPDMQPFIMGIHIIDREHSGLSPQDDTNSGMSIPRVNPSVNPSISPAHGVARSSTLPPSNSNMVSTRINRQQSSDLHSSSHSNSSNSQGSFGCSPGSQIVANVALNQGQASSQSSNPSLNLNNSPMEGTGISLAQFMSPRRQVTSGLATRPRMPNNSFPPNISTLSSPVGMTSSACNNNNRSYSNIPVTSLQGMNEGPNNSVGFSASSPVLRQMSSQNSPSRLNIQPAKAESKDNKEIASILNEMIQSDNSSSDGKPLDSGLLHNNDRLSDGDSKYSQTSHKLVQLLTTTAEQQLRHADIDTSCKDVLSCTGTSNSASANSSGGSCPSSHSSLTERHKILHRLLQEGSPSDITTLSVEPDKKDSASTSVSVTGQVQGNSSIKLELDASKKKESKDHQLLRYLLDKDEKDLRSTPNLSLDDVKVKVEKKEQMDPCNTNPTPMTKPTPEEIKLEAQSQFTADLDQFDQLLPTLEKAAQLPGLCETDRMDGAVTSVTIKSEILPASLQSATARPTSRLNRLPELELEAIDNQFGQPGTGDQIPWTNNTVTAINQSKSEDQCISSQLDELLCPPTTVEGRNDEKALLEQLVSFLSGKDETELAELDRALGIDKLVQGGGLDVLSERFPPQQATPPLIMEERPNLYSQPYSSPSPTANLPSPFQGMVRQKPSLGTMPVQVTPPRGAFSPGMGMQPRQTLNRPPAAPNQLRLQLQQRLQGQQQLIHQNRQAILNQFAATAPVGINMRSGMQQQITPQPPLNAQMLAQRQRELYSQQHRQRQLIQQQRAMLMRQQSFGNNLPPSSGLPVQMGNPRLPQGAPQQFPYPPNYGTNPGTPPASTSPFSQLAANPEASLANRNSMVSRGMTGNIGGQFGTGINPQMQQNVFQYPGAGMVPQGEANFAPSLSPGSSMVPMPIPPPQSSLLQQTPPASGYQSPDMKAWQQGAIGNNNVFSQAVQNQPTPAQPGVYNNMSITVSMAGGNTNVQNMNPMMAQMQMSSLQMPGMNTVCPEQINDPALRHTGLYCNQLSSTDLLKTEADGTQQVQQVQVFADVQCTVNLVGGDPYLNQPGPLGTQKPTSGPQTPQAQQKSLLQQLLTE

Vero = assay: host cell cytotoxicity of antiviral hits, dose response, cytotoxicity control for West Nile virus antiviral project, secondary assay (AID 1650); type: functional, Chlorocebus sabaeus; details: Chlorocebus sabaeus, Vero
[9] = molecular target: Peroxisome proliferator-activated receptor gamma/Nuclear receptor coactivator 3 (Homo sapiens, UniProt P37231); type: functional;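 further: agonist potency for raising coactivator recruitment to the receptor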
[10] = molecular target: Peroxisome proliferator-activated receptor gamma/Nuclear receptor coactivator 2 (Homo sapiens, UniProt P37231); type: functional;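 further: agonist potency for raising coactivator recruitment to the receptor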
Chain of Peroxisome proliferator-activated receptor gamma/Nuclear receptor coactivator 2 (P37231 whole entry): as the sequence (P37231 whole entry) above
Chain of Peroxisome proliferator-activated receptor gamma/Nuclear receptor coactivator 2 (Q15596 whole entry, further chain): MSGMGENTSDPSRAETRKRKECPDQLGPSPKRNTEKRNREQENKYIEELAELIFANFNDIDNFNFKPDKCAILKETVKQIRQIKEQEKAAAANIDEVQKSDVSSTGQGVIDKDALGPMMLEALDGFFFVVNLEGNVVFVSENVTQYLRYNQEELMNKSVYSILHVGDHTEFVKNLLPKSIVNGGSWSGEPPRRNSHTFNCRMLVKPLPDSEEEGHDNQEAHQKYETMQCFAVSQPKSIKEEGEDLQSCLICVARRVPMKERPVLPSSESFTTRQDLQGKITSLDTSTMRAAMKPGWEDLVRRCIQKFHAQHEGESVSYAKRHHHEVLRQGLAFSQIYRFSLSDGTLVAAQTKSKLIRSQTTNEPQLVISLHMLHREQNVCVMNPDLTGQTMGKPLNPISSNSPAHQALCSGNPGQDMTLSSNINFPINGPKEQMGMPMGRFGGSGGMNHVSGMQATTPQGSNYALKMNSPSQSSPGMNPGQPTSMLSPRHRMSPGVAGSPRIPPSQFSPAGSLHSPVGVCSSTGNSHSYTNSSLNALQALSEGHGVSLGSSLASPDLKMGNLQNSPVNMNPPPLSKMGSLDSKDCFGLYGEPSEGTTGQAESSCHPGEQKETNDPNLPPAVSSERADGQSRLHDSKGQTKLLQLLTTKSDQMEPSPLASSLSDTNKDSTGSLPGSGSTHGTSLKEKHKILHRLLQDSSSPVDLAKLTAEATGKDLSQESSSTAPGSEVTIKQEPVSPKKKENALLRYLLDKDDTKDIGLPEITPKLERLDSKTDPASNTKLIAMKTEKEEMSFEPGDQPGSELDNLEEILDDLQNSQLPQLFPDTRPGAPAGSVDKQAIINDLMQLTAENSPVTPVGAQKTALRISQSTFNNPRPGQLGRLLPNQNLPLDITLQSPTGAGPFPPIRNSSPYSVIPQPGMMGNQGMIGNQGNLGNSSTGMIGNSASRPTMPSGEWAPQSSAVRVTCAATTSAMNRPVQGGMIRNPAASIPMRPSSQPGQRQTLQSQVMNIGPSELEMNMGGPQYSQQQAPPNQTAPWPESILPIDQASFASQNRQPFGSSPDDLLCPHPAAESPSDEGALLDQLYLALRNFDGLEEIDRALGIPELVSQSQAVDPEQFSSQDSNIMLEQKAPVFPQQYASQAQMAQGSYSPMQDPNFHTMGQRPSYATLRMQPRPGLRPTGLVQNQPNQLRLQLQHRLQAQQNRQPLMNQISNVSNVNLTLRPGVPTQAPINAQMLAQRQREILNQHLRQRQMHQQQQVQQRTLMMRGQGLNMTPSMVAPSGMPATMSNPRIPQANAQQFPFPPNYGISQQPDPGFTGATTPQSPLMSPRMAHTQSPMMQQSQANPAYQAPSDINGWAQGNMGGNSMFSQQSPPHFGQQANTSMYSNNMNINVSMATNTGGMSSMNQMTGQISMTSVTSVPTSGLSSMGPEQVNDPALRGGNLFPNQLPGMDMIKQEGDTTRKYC

[11] = molecular target: T1, Neuropeptide Y receptor type 2 (Homo sapiens, UniProt P49146); type: functional, cell-based;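 further: HEK293 cells expressing the receptor and a CNG channel; stimulus was NPY near EC95 followed by isoproterenol to raise cAMP; antagonist potency measured as restoring cAMP signal that NPY suppresses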
T1 sequence (P49146 whole entry): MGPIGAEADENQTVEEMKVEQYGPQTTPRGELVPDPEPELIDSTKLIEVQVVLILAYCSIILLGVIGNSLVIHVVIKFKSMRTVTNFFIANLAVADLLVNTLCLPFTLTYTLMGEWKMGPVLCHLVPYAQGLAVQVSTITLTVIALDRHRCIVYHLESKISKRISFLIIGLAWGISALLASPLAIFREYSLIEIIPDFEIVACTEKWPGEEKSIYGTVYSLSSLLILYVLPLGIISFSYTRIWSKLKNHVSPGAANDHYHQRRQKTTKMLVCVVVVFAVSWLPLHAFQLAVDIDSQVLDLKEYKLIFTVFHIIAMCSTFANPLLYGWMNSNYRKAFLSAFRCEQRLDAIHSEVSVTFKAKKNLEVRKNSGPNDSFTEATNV

[12] = molecular target: T2, Neuropeptide Y receptor type 1 (Homo sapiens, UniProt P25929); type: functional;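 further: HEK293 cells with a CNG channel challenged with NPY then isoproterenol; potency as antagonist that reverses NPY suppression of cAMP signal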
T2 sequence (P25929 whole entry): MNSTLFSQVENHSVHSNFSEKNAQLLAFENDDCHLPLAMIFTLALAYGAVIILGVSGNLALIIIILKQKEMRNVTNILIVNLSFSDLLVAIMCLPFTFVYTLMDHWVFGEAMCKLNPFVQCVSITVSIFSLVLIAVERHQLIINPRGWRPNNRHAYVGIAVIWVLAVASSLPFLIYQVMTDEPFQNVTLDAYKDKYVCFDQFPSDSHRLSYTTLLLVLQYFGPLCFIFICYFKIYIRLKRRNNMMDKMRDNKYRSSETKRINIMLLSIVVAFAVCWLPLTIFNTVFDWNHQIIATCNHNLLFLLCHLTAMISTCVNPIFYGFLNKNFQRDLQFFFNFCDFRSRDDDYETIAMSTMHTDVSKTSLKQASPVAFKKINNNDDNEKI

[13] = Jurkat T cell cytotoxicity, dose response, cytotoxicity control for P. falciparum gametocyte viability project, luminescence (AID 1117277); type: functional, cell-based;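 further: potency reflects loss of cellular ATP meaning fewer viable cells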
[14] = P. falciparum late gametocyte killing, dose response, luminescence (AID 1117278); type: functional, cell-based;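 further: gametocytes exposed to compound for 24 hours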
Hexokinase = molecular target: T3, Hexokinase (Trypanosoma brucei, UniProt Q38C41); assay: Confirmation assay for inhibitors of Trypanosoma brucei hexokinase 1-Analogue-first series. [Related pubchem assays (depositor defined):AID1430, AID1632, AID2516, AID2560, AID2579, AID2600, AID449725, AID492951]; type: functional
T3 sequence (Q38C41 whole entry): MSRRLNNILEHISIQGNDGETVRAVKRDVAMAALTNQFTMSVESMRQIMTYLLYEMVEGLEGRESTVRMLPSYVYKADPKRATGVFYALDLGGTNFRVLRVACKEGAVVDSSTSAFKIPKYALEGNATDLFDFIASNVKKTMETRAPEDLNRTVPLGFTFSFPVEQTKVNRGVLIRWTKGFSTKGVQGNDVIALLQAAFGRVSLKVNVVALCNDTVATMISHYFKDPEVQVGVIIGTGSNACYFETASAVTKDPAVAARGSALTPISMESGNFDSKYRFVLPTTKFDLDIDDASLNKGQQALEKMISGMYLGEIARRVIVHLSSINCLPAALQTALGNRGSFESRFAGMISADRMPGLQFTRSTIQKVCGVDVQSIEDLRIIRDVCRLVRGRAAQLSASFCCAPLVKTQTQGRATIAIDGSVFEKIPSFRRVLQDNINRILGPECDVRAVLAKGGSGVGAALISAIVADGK

SMILES: Cc1cc(-c2ccc(N=Nc3c(S(=O)(=O)O)cc4cc(S(=O)(=O)O)cc(N)c4c3O)c(C)c2)ccc1N=Nc1c(S(=O)(=O)O)cc2cc(S(=O)(=O)O)cc(N)c2c1O
IC50 [1]: > 20 µM (inactive)
IC50 [2]: > 20 µM (inactive)
IC50 [3]: > 20 µM (inactive)
IC50 [4]: > 20 µM (inactive)
IC50 [5]: > 20 µM (inactive)
IC50 [6]: > 20 µM (inactive)
IC50 [7]: > 20 µM (inactive)

SMILES: COc1ccccc1C(=O)n1nc(-c2ccccc2)nc1NCc1ccco1
IC50 (Prothrombin): 0.223 µM (active)

SMILES: Cc1ccc(S(=O)(=O)N2CCN(Cc3ccccc3)CC2)c(C)c1N(C)S(=O)(=O)c1ccccc1
IC50 [13]: > 83.3 µM (inactive)
IC50 [14]: > 109 µM (inactive)

SMILES: CCC(=O)NC(=Nc1ccc(OC)cc1)Nc1nc(C)cc(C)n1
IC50 (Prothrombin): 1.23 µM (active)

SMILES: O=C(O)c1ccc(Cl)cc1NC(=O)C1CCOCC1
IC50 (Hexokinase): > 25 µM (inactive)

SMILES: COc1ccc(C(=O)Nc2cc(Cl)ccc2C(=O)O)cn1
IC50 (Hexokinase): > 25 µM (inactive)

Now from value to compound, other results behind:

AC50 (Cytochrome P450 3A4): 2.82 µM (inconclusive)
EC50 [8]: > 79.4 µM (not active)
EC50 [9]: > 79.4 µM (not active)
EC50 [10]: > 79.4 µM (not active)
SMILES: Cc1nc(SCC(=O)c2ccc(Cl)s2)c2oc3ccccc3c2n1
CC50 (Vero): 23.6 µM (active)

IC50 [11]: > 35 µM (not active)
IC50 [12]: 26.7 µM (not active)
SMILES: Nc1c2c(nc3sc4c(c13)CCCC4)CCCCCC2

EC50 [8]: > 79.4 µM (not active)
EC50 [9]: > 79.4 µM (not active)
EC50 [10]: > 79.4 µM (not active)
SMILES: COc1ccccc1C(=O)Nc1cccc(-c2cn3ccsc3n2)c1
